What all share (format): cell-based
Data set [1] has as its system human peripheral blood polymorphonuclear leukocytes. Description: Chemotaxis assay, modified Boyden chamber, towards zymosan activated serum (ZAS). As for the experimental part: (§1) Polymorphonuclear leukocytes (PMNS) were isolated from the peripheral blood of healthy individuals in citrated glass. The cells were separated by dextran density gradient and lymphoprep separation. The purity of PMNs was greater than 98% and the cell viability as determined by trypan blue dye exclusion was greater than 98%.
Chemotaxis assay was performed using a modified Boyden chamber technique as described in Jensen, P. and Kharazmi, A., Computer-assisted image analysis assay of human neutrophil chemotaxis in vitro. J. Immunol. Methods, 144, 43–48. 1991. The purified PMNs were pre-incubated with different dilutions of the extracted galactolipid for 30 min at 37° C. Following preincubation, the chemotaxis of the cells towards the chemotactic factor zymosan activated serum (ZAS), which contains the biologically active chemoattractant C5a, were tested. The migrated cells were counted by a computer-assisted image analysis system.

For data set [2], the system named is polymorphonuclear leukocytes. Description: Cell viability by trypan blue dye exclusion. As to conditions: for Percent viability: DMSO control 100. As for the experimental part: as §1
Table 6. […] Cell viability was determined by a trypan blue dye exclusion method. The cells were incubated with trypan blue. The dead cells will take up dye and appear blue under the microscope. The results are show as percent viable cells.

The subject of data set [3] is human peripheral blood polymorphonuclear leukocytes. The data set can be described thus: Chemiluminescence assay (oxidative burst response), stimulated with opsonized zymosan. The note with it: for Chemiluminescence, Millivolts: DMSO control 664. As for the experimental part: as §1
Chemiluminescence assay was used as a measure of oxygen radical generation by activated PMNs. The method was performed as described in Kharazmi, A., Høiby, N., Doring, G., and Valerius, N. H. Pseudomonas aeruginosa exoproteases inhibit human neutrophil chemiluminescence. Infect. Immun. 44, 587, 1984. PMNs were pre-incubated with different concentrations of the extracted galactolipid and then stimulated with opsonized zymosan. The oxidative burst response of the activated cells was measured by a luminometer (1250-LKB Wallace).

Structures are written as SMILES. Read-outs that look alike come from different tables or passages of the source.

Usually inhibition stands for the share of the control response that was lost under treatment. In the case of `CC/C=C\C/C=C\C/C=C\CCCCCCCC(=O)OCC(CO[C@@H]1O[C@H](CO)[C@H](O)[C@H](O)[C@H]1O)OC(=O)CCCCCCC/C=C\C/C=C\C/C=C\CC` (stereo partly drawn) [GOPO, 3-β-D-galactopyranosyloxy-2-(octadeca-9Z,12Z,15Z-trienoyloxy)propanyl octadeca-9Z,12Z,15Z-trienoate], the Cells migrated in data set [1] (GOPO 0.1 μg/ml, new batch (Table 4), DMSO control 42) is given as 39; in data set [1] (GOPO 1 μg/ml, new batch (Table 4), DMSO control 42), 15; in data set [1] (GOPO 10 μg/ml, new batch (Table 4), DMSO control 42), 16; in data set [1] (GOPO 50 μg/ml, first batch (Table 3), DMSO control 59), 5; in data set [1] (GOPO 100 μg/ml, first batch (Table 3), DMSO control 59), 8; in data set [1] (GOPO 100 μg/ml, new batch (Table 4), DMSO control 42), 12. Besides, in data set [1] (Homo sapiens, Leukocyte, GOPO 0.1 μg/ml, new batch (Table 4), read-out: Percent inhibition), the inhibition at 0.1 µg/mL turned out to be 7%. In addition, in data set [1] (Homo sapiens, Leukocyte, GOPO 1 μg/ml, new batch (Table 4), read-out: Percent inhibition), the inhibition at 1 µg/mL is 64%. In addition, the inhibition at 10 µg/mL in data set [1] (Homo sapiens, Leukocyte, GOPO 10 μg/ml, new batch (Table 4), read-out: Percent inhibition) turned out to be 62%. In addition, the inhibition at 50 µg/mL in data set [1] (Homo sapiens, Leukocyte, GOPO 50 μg/ml, first batch (Table 3), read-out: Percent inhibition) is 92%. The inhibition at 100 µg/mL turned out to be 86% in data set [1] (Homo sapiens, Leukocyte, GOPO 100 μg/ml, first batch (Table 3), read-out: Percent inhibition) and 71% in data set [1] (Homo sapiens, Leukocyte, GOPO 100 μg/ml, new batch (Table 4), read-out: Percent inhibition). The “Migration of human peripheral blood leukocytes towards zymosan-activated serum (result in words)” value in data set [1] (at fairly low concentrations) was “inhibited”. Further, the results for the Percent viability in data set [2] (GOPO 50 μg/ml) and in data set [2] (GOPO 100 μg/ml) were 100% and 99%, respectively. Besides, the “Toxicity to the cells (result in words)” value in data set [2] (at the tested concentrations) is given as “does not appear to be toxic”. The “Chemiluminescence, Millivolts” value in data set [3] (GOPO 50 μg/ml) was 520 Millivolts; in data set [3] (GOPO 100 μg/ml) it was 339 Millivolts. Also, the “Chemiluminescence of human peripheral blood leukocytes (result in words)” value in data set [3] (at fairly low concentrations) was “inhibited”.
